Results as given in PMC10251204, “Medicago Sativa Defensin1 as a tumor sensitizer for improving chemotherapy: translation from anti-fungal agent to a potential anti-cancer agent” (Frontiers in Oncology, 2023).
Entries after “also recorded” stand apart in the source; their conditions may differ. Bridges are numbered along the chain shown (N, C = ends). Where no end group is shown, it is not given here.

Assays:
[1] = system: normal cells; assay: Cell viability, normal cells; type: cell-based; details: Figure 6B
Experimental: (§1) Cell viability was evaluated by the standard MTT ([…])-2,5-diphenyltetrazolium bromide, Sigma) method. All cancer cells (MDA-MB-231, MCF-7, MCF-R, Hela, MCF-10A epithelial breast cells, induced pluripotent stem cells derived cardiomyocytes (iPSc) were added to the wells of 96-well flat-bottom plates at the density of 2×10^4 per well, allowed to attach overnight, and treated with different concentrations of MsDef1 (1-100 µM). After 24 h, 10 µl of MTT solution was added to each well and the plate was incubated at 37°C for 3 h. After removing the media, 200 µl of isopropanol were added to dissolve the crystals. Absorbance was read at 550 nm in an ELISA plate reader (Sunrise, Tecan, Milan, Italy), and the results are expressed as relative change with respect to the controls set as 100%. For cardiomyocytes, human iPSCs were used (Ionic Transports, St Louis).

[2] = system: MDA-MB-231 cells; assay: cells; type: cell-based; details: Homo sapiens, Doxorubicin dose response alone or combined with Def1 at 20 μM, N=4, unit inferred, read-out: IC50 (Figure 6C)
[3] = system: MDA-MB-231R cells; assay: Cell death / apoptosis (TUNEL) synergy study, MDA-MB-231R; type: cell-based; details: MsDef1 ~25 μM, Doxorubicin; combination = MsDef1 pretreatment followed by Doxorubicin; N=4
Experimental: (§2) Doxorubicin resistant MCF-7R and MDA-MB-231R cells were grown in DMEM 10% FBS with increasing concentrations of Doxorubicin as described by Bielawski et al. ([40]). Cells were seeded and exposed to increasing concentrations of Doxorubicin (10 nM to 100 nM). MCF-7 or MDA-MB-231 cells were seeded in cell culture flasks and after 24 h, cells were trypsinized, counted viable cells and reseeded into a new culture flask before adding Doxorubicin again.
(§3) The percentage of apoptotic cells was determined by using TUNEL assay according to the manufacturer protocol. Briefly, cells were fixed with 1% paraformaldehyde at 4 °C, followed by two washing with PBS. Cold 70% ethanol was added to the cell pellet. Cells were then incubated at −20°C for permeabilization. After washing with PBS, cells were incubated with staining solution containing TdT enzyme and fluorescein-dUTP for 60 min at 37°C. Samples were washed with rinse buffer and resuspended in […] of propidium iodise/RNase solution for flow cytometry analysis.

[4] = system: MCF-7R cells; assay: Cell death / apoptosis (TUNEL) synergy study, MCF-7R; type: cell-based; details: MsDef1 ~25 μM, Doxorubicin; combination = MsDef1 pretreatment followed by Doxorubicin; N=4
Experimental: as §2, §3

[5] = system: ovarian SKOV3 cells; assay: NBD-MsDef1 uptake by confocal microscopy, SKOV3; type: cell-based; details: 15 min at 37°C, 20, 6.6 or 2.2 µg/ml, N=4
[6] = system: resistant TNBC MDA-MB-231R cells; assay: NBD-MsDef1 uptake by confocal microscopy, MDA-MB-231R; type: cell-based; details: 15 min at 37°C, 20, 6.6 or 2.2 µg/ml, N=4
[7] = system: fibroblasts cells; assay: NBD-MsDef1 uptake by confocal microscopy, fibroblasts; type: cell-based; design: dose or concentration left out as unconfirmed; details: even at 5-fold higher dose
[8] = system: normal epithelial breast cells (MCF-10A); assay: NBD-MsDef1 uptake by confocal microscopy, MCF-10A; type: cell-based; design: dose or concentration left out as unconfirmed; details: even at 5-fold higher dose
[9] = IC50 of NBD-labelled peptide, cell line not stated; type: cell-based; details: similar to native MsDef1
Experimental: as §1

[10] = molecular target: pepsin (Sus scrofa, UniProt P00791); details: SGF (200 mg NaCl, 0.2% pepsin, pH 2), 500 μL, 37°C, 2 min preincubation, 25 μL of 5 mg/ml protein, SDS PAGE read-out, n=4
Sequence of pepsin (P00791 60-385): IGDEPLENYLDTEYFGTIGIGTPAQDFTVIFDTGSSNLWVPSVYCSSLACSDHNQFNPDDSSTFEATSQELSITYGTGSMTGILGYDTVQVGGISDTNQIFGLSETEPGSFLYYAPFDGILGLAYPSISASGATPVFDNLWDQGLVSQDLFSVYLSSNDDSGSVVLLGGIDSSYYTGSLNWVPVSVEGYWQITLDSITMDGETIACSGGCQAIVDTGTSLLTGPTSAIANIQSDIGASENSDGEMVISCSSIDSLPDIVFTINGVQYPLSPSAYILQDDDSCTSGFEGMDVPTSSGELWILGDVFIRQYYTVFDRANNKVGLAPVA
Experimental: The Simulated Gastric Fluid (SGF) assay was performed as described by Fu et al., 2002 with some modification. Tests were performed in 500 μL of SGF (200 mg NaCl, 0.2% pepsin, pH 2) in glass tubes in a 37°C water bath with continuous stirring of the enzyme reaction. […] Five mg/ml bovine serum albumin (minimum 98%, A-7030, Sigma Aldrich) in ultrapure water was used as the positive control for pepsin digestion. Protein samples were analyzed for degradation by SDS PAGE followed by staining for 1 h and extensive washing with ultrapure water.

[11] = system: GlcCer and Trx positive cancer cells; details: read-out: inhibitory activity IC50 against several cancer cells
Experimental: as §1

Compound: COc1cccc2c1C(=O)c1c(O)c3c(c(O)c1C2=O)C[C@@](O)(C(=O)CO)C[C@@H]3O[C@H]1C[C@H](N)[C@H](O)[C@H](C)O1 [Doxorubicin]
- dose at which normal cells are killed / still safe [1]: ~ 9.6 μM
- IC50 [2]: 0.396 µM
- cell death [3]: ~ 30%
- cell death [4]: ~ 30%

Compound: 6-((N-(7-nitrobenz-2-oxa-1, 3-diazol-4-yl) amino) hexanoyl -MsDef1 [NBD-MsDef1]
- cell uptake [5]: significant uptake
- cell uptake [6]: significant uptake
- cell uptake [7]: did not take up
- cell uptake [8]: did not take up
- IC50 [9]: 12 µM

Compound: RTCENLADKYRGPCFSGCDTHCTTKENAVSGRCRDDFRCWCTKRC (disulfide 3-45, 14-33, 18-39, 22-41) [MsDef1]
- stability to digestion in SGF [10]: remained undigested; also recorded: no significant change in the intensity of the bands
- IC50 [11]: 10 to 15 µM
